Data: patent US9562036B2, “Fluoromethyl-substituted pyrrole carboxamides as CaV2.2 calcium channel blockers” (GRÜNENTHAL GMBH, priority 2013, dated 2017)

target: T1, Human CaV2.2 channels (Homo sapiens, UniProt Q00975); assay: Fluorescent assay for CaV2.2 channels using potassium depolarization to induce channel opening (FLIPR, Fluo 4); type: cell-based; settings: 3 μM test compound; 30 mM KCl alternative assay buffer (inactivated channel state); HEK293 cells; read-out: %-Inhib (CaV2.2) @3 μM @30 mM KCl
T1 construct: expressed in transfected cells; also stably expressing Kir2.3)
T1 sequence (Q00975 whole entry): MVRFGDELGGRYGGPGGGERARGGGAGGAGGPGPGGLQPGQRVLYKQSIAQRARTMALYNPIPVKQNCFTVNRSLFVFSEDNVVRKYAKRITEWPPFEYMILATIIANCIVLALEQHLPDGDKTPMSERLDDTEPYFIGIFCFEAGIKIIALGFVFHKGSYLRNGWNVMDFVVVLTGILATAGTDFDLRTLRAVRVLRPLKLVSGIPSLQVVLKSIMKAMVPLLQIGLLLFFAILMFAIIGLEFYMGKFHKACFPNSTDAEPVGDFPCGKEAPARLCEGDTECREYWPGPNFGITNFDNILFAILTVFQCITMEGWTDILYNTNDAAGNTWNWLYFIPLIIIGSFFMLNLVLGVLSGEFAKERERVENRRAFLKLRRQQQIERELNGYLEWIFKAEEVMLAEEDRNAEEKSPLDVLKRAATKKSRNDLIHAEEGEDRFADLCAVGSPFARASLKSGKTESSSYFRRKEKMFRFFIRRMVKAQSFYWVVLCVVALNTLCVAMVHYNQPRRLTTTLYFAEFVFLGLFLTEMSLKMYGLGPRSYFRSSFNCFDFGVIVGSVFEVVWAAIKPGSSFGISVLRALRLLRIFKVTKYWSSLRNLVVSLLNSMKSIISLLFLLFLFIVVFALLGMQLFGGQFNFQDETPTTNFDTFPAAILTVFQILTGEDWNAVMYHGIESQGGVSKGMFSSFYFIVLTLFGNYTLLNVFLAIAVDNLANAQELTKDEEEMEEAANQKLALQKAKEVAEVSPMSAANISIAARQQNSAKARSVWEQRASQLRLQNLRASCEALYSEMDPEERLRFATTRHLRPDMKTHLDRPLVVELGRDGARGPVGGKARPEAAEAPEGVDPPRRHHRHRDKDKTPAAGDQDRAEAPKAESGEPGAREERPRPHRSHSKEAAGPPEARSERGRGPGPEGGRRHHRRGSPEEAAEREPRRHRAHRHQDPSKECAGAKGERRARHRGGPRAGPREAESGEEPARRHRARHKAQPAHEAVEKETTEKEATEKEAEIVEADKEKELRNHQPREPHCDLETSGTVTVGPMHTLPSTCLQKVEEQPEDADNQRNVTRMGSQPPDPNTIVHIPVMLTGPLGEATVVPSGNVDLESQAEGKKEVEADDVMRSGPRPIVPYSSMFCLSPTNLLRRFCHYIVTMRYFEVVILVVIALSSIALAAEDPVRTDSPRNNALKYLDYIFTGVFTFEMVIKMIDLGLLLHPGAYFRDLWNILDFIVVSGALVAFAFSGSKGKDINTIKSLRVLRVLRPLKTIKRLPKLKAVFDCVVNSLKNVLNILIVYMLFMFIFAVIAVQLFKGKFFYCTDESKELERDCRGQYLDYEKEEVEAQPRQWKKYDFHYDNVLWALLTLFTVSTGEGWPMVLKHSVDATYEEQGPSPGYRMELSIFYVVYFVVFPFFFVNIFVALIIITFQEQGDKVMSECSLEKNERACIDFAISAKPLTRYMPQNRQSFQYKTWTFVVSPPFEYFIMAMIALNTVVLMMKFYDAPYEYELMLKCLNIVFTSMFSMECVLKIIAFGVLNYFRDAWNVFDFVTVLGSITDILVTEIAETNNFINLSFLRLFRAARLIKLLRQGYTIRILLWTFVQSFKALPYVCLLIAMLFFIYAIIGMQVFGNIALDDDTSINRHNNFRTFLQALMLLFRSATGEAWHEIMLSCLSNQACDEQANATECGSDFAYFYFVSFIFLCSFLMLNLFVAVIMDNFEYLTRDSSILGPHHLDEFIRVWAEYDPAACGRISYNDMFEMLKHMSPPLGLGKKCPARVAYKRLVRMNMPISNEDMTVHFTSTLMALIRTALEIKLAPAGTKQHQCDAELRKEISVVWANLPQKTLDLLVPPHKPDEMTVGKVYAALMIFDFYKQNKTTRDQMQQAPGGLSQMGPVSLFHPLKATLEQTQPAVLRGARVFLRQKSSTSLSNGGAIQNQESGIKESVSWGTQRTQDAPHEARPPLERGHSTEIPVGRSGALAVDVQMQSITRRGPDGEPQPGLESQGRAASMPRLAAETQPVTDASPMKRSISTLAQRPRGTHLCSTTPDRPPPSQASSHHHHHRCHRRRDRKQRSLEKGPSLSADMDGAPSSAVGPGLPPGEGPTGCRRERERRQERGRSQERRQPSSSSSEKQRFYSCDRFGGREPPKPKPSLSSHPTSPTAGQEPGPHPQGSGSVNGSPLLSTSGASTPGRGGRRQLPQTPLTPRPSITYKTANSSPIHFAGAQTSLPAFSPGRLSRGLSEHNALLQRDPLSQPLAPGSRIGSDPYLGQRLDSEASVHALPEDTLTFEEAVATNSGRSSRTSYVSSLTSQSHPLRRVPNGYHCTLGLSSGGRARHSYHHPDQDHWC
Excerpt: In the process, the Ca^2+ influx is quantified in the FLIPR assay with the aid of a Ca^2+-sensitive dye (type Fluo-4, Molecular Probes Europe BV, Leiden, the Netherlands) in a fluorescent imaging plate reader (FLIPR 3, Molecular Devices, Sunnyvale, USA), as described hereinafter.
2. Assay Descriptions and Biological Data: 2.1 Fluorescent Assay for CaV2.2 Channels Using Potassium Depolarization to Induce Channel Opening
Human CaV2.2 channels were stably expressed in HEK293 cells together with alpha2-delta and beta subunits of voltage gated calcium channels. In addition, an inwardly rectifying potassium channel (Kir2.3) was stably expressed in these cells to augment control of the cell membrane potential by the concentration of extracellular potassium ions. Raise of the extracellular potassium concentration leads to depolarization of the membrane potential and thus regulates the voltage dependent state of CaV2.2 channels. For preparation, cells were seeded in black poly-D-lysine coated 96-well plates (Becton Dickinson, Biocoat 4640) in 100 μL medium [500 mL DMEM/F-12 plus Glutamax (Invitrogen 31331-093) plus 5.5 mL MEM NEAA 100× (Invitrogen 11140-035) plus 50 mL FBS decomplemented (Invitrogen 10270-106) plus 200 μg/mL Geneticin (Invitrogen 10131-027) plus 50 μg/mL Hygromycin B (Invitrogen 10687-010) plus 2 μg/mL Blasticidin (anti-bl5b Invivo-Gen) plus 0.2 μg/mL Puromycin (A 11138-03)] at a cell density of 30.000 cells per well. Plates were incubated at 37° C. (5% CO2) for 20 to 23 h. On the day of experiment medium was discarded and cells were loaded with Fluo 4 by addition of 100 μL of basic assay buffer (10 mM HEPES, 1 mM KCl, 149 mM NaCl, 0.8 mM CaC2, 1.7 mM MgCl2, 10 mM Glucose, 0.1% BSA. pH 7.4) containing 2 μM Fluo 4 (Molecular Probes; F-14201), 0.01% pluronic acid (Molecular Probes; P-6866) and 2.5 mM probenecid (Molecular Probes; P36400). Cells were incubated in the dark at 25° C. for 60 min. Then dye containing buffer was discarded and 100 μL basic (1 mM KCl) or alternative (30 mM KCl) assay buffer was added. The alternative assay buffer contained altered concentrations of KCl (30 mM) and NaCl (120 mM) and was used in order to promote the inactivated channel state. After that 25 μL of basic or alternative assay buffer with or without test compound were added and cells were incubated again in the dark at 25° C. for 15 min. Fluorescence intensity was measured on a FLIPR 3 instrument (Molecular Devices Corp., Sunnyvale, Calif.) with excitation at 480 nm and emission at 535 nm. After continuously reading fluorescence for 30 sec, 50 μL of basic assay buffer containing 210 mM KCl (NaCl omitted) were added for depolarization. Peak fluorescent signal intensity was determined and the amplitude of the peak signal, normalized to base line, was used to measure channel inhibition by test compounds.

Cc1cc(Cl)ncc1-c1c(C)c(C(F)(F)F)n(Cc2ccccc2)c1C(=O)N1CCOCC1 [Example 27, [1-Benzyl-3-(6-chloro-4-methyl-pyridin-3-yl)-4-methyl-5-(trifluoromethyl)-1H-pyrrol-2-yl]-morpholin-4-yl-methanone] and COc1cc(C)c(-c2c(C)c(C(F)(F)F)n(Cc3ccccc3)c2C(=O)N2CCOCC2)cn1 [Example 28, [1-Benzyl-3-(6-methoxy-4-methyl-pyridin-3-yl)-4-methyl-5-(trifluoromethyl)-1H-pyrrol-2-yl]-morpholin-4-yl-methanone] fall in the same range of inhibition at 3 µM: 75 to 95% for the first, 75 to 95% for the second.

First: Cc1c(-c2ccc(Cl)nn2)c(C(=O)N2CCOCC2)n(Cc2ccccc2)c1C(F)(F)F [Example 29, [1-Benzyl-3-(6-chloro-pyridazin-3-yl)-4-methyl-5-(trifluoromethyl)-1H-pyrrol-2-yl]-morpholin-4-yl-methanone]
Second: Cc1c(-c2ccc(Cl)cn2)c(C(=O)N2CCOCC2)n(Cc2ccccc2)c1C(F)(F)F [Example 42, [1-Benzyl-3-(5-chloro-pyridin-2-yl)-4-methyl-5-(trifluoromethyl)-1H-pyrrol-2-yl]-morpholin-4-yl-methanone]
The inhibition at 3 µM of the first is lower: 40 to 75% for the first, over 95% for the second.

First: COc1cnc(-c2c(C)c(C(F)(F)F)n(Cc3ccccc3)c2C(=O)N(C)CC(C)(C)C)nc1 [Example 30, 1-Benzyl-3-(5-methoxypyrimidin-2-yl)-N,4-dimethyl-N-neopentyl-5-(trifluoromethyl)-1H-pyrrole-2-carboxamide]
Second: Cc1c(-c2ncc(F)cn2)c(C(=O)N(C)CC(C)(C)C)n(Cc2ccccc2)c1C(F)(F)F [Example 33, 1-Benzyl-3-(5-fluoropyrimidin-2-yl)-N,4-dimethyl-N-neopentyl-5-(trifluoromethyl)-1H-pyrrole-2-carboxamide]
The inhibition at 3 µM of the first is lower: 75 to 95% for the first, over 95% for the second.

Cc1c(-c2ccc(F)cn2)c(C(=O)N(C)CC(C)(C)C)n(Cc2ccccc2)c1C(F)(F)F [Example 31, 1-Benzyl-3-(5-fluoropyridin-2-yl)-N,4-dimethyl-N-neopentyl-5-(trifluoromethyl)-1H-pyrrole-2-carboxamide] and Cc1c(-c2ccc(Cl)cn2)c(C(=O)N(C)CC(C)(C)C)n(Cc2ccccc2)c1C(F)(F)F [Example 41, 1-Benzyl-3-(5-chloro-pyridin-2-yl)-N-(2,2-dimethyl-propyl)-N,4-dimethyl-5-(trifluoromethyl)-1H-pyrrole-2-carboxylic acid amide] cannot be ordered by inhibition at 3 µM: over 95% for the first, over 95% for the second.

Cc1c(-c2ccnnc2)c(C(=O)N(C)CC(C)(C)C)n(Cc2ccccc2)c1C(F)(F)F [Example 32, 1-Benzyl-N,4-dimethyl-N-neopentyl-3-(pyridazin-4-yl)-5-(trifluoromethyl)-1H-pyrrole-2-carboxamide] and Cc1c(-c2cnccn2)c(C(=O)N(C)CC(C)(C)C)n(Cc2ccccc2)c1C(F)(F)F [Example 34, 1-Benzyl-N,4-dimethyl-N-neopentyl-3-(pyrazin-2-yl)-5-(trifluoromethyl)-1H-pyrrole-2-carboxamide] fall in the same range of inhibition at 3 µM: 75 to 95% for the first, 75 to 95% for the second.

Compared with Cc1c(-c2ncccn2)c(C(=O)N(C)CC(C)(C)C)n(Cc2ccccc2)c1C(F)(F)F [Example 35, 1-Benzyl-N,4-dimethyl-N-neopentyl-3-(pyrimidin-2-yl)-5-(trifluoromethyl)-1H-pyrrole-2-carboxamide], Cc1c(-c2ncc(Cl)cn2)c(C(=O)N(C)CC(C)(C)C#N)n(Cc2ccccc2)c1C(F)(F)F [Example 49, 1-Benzyl-3-(5-chloro-pyrimidin-2-yl)-N-(2-cyano-2-methyl-propyl)-N,4-dimethyl-5-(trifluoromethyl)-1H-pyrrole-2-carboxylic acid amide] is higher in inhibition at 3 µM: 75 to 95% for the first, over 95% for the second.

Compared with Cc1c(-c2ccc(F)cn2)c(C(=O)N2CCOCC2)n(Cc2ccccc2)c1C(F)(F)F [Example 36, (1-Benzyl-3-(5-fluoropyridin-2-yl)-4-methyl-5-(trifluoromethyl)-1H-pyrrol-2-yl)(morpholino)methanone], Cc1c(-c2ncc(F)cn2)c(C(=O)N2CCOCC2)n(Cc2ccccc2)c1C(F)(F)F [Example 38, (1-Benzyl-3-(5-fluoropyrimidin-2-yl)-4-methyl-5-(trifluoromethyl)-1H-pyrrol-2-yl)(morpholino)methanone] is lower in inhibition at 3 µM: 75 to 95% for the first, 40 to 75% for the second.

Cc1c(-c2ccnnc2)c(C(=O)N2CCOCC2)n(Cc2ccccc2)c1C(F)(F)F [Example 37, (1-Benzyl-4-methyl-3-(pyridazin-4-yl)-5-(trifluoromethyl)-1H-pyrrol-2-yl)(morpholino)methanone] and Cc1c(-c2cnccn2)c(C(=O)N2CCOCC2)n(Cc2ccccc2)c1C(F)(F)F [Example 39, (1-Benzyl-4-methyl-3-(pyrazin-2-yl)-5-(trifluoromethyl)-1H-pyrrol-2-yl)(morpholino)methanone] fall in the same range of inhibition at 3 µM: 40 to 75% for the first, 40 to 75% for the second.

First: Cc1c(-c2ncccn2)c(C(=O)N2CCOCC2)n(Cc2ccccc2)c1C(F)(F)F [Example 40, (1-Benzyl-4-methyl-3-(pyrimidin-2-yl)-5-(trifluoromethyl)-1H-pyrrol-2-yl)(morpholino)methanone]
Second: Cc1c(-c2ncc(Cl)cn2)c(C(=O)N2CCS(=O)(=O)CC2)n(Cc2ccccc2)c1C(F)(F)F [Example 44, [1-Benzyl-3-(5-chloro-pyrimidin-2-yl)-4-methyl-5-(trifluoromethyl)-1H-pyrrol-2-yl]-(1,1-dioxo-[1,4]thiazinan-4-yl)-methanone]
The inhibition at 3 µM of the first is lower: 40 to 75% for the first, 75 to 95% for the second.

Cc1c(-c2ccc(Cl)cn2)c(C(=O)N(C)CCS(C)(=O)=O)n(Cc2ccccc2)c1C(F)(F)F [Example 43, 1-Benzyl-3-(5-chloro-pyridin-2-yl)-N,4-dimethyl-N-(2-methylsulfonyl-ethyl)-5-(trifluoromethyl)-1H-pyrrole-2-carboxylic acid amide] and Cc1c(-c2ccc(Cl)cn2)c(C(=O)N(C)C(C)C)n(Cc2ccccc2)c1C(F)(F)F [Example 50, 1-Benzyl-3-(5-chloro-pyridin-2-yl)-N-isopropyl-N,4-dimethyl-5-(trifluoromethyl)-1H-pyrrole-2-carboxylic acid amide] cannot be ordered by inhibition at 3 µM: over 95% for the first, over 95% for the second.

Compared with Cc1c(-c2ncc(Cl)cn2)c(C(=O)N2CCOC(C)(C)C2)n(Cc2ccccc2)c1C(F)(F)F [Example 45, [1-Benzyl-3-(5-chloro-pyrimidin-2-yl)-4-methyl-5-(trifluoromethyl)-1H-pyrrol-2-yl]-(2,2-dimethyl-morpholin-4-yl)-methanone], Cc1c(-c2ncc(Cl)cn2)c(C(=O)N2CCNC(=O)C2)n(Cc2ccccc2)c1C(F)(F)F [Example 47, 4-[1-Benzyl-3-(5-chloro-pyrimidin-2-yl)-4-methyl-5-(trifluoromethyl)-1H-pyrrole-2-carbonyl]-piperazin-2-one] is lower in inhibition at 3 µM: over 95% for the first, 40 to 75% for the second.

Cc1c(-c2ncc(Cl)cn2)c(C(=O)NC2CC2)n(Cc2ccccc2)c1C(F)(F)F [Example 46, 1-Benzyl-3-(5-chloro-pyrimidin-2-yl)-N-cyclopropyl-4-methyl-5-(trifluoromethyl)-1H-pyrrole-2-carboxylic acid amide] and Cc1c(-c2ncc(Cl)cn2)c(C(=O)NC(C)C)n(Cc2ccccc2)c1C(F)(F)F [Example 52, 1-Benzyl-3-(5-chloro-pyrimidin-2-yl)-N-isopropyl-4-methyl-5-(trifluoromethyl)-1H-pyrrole-2-carboxylic acid amide] fall in the same range of inhibition at 3 µM: 40 to 75% for the first, 40 to 75% for the second.

Compared with Cc1c(-c2ncc(Cl)cn2)c(C(=O)N(C)CC(C)(C)C(N)=O)n(Cc2ccccc2)c1C(F)(F)F [Example 48, 1-Benzyl-N-(2-carbamoyl-2-methyl-propyl)-3-(5-chloro-pyrimidin-2-yl)-N,4-dimethyl-5-(trifluoromethyl)-1H-pyrrole-2-carboxylic acid amide], Cc1c(-c2ccn(C)n2)c(C(=O)N(C)C(C)C)n(Cc2ccccc2)c1C(F)(F)F [Example 51, 1-Benzyl-N-isopropyl-N,4-dimethyl-3-(1-methyl-1H-pyrazol-3-yl)-5-(trifluoromethyl)-1H-pyrrole-2-carboxylic acid amide] is lower in inhibition at 3 µM: over 95% for the first, 75 to 95% for the second.
